Laboratory results taken from ChEMBL document CHEMBL5625280, “Discovery of novel nucleoside derivatives as selective lysine acetyltransferase p300 inhibitors for cancer therapy” (Bioorg Med Chem Lett, 2024).

Assays:
[1] = target: Histone acetyltransferase p300 (Homo sapiens, UniProt Q09472)
Description: Inhibition of p300 (unknown origin)

NCI-H520 = assay: Antiproliferative activity against human NCI-H520 cells assessed as inhibition of cell growth incubated for 72 hrs by MTT assay; assay type: functional, cell-based; conditions: NCI-H520, 72 h
MDA-MB-231 = assay: Antiproliferative activity against human MDA-MB-231 cells assessed as inhibition of cell proliferation at 10 uM incubated for 72 hrs by MTT assay relative to control; assay type: functional

Chain of Histone acetyltransferase p300 (Q09472 whole entry): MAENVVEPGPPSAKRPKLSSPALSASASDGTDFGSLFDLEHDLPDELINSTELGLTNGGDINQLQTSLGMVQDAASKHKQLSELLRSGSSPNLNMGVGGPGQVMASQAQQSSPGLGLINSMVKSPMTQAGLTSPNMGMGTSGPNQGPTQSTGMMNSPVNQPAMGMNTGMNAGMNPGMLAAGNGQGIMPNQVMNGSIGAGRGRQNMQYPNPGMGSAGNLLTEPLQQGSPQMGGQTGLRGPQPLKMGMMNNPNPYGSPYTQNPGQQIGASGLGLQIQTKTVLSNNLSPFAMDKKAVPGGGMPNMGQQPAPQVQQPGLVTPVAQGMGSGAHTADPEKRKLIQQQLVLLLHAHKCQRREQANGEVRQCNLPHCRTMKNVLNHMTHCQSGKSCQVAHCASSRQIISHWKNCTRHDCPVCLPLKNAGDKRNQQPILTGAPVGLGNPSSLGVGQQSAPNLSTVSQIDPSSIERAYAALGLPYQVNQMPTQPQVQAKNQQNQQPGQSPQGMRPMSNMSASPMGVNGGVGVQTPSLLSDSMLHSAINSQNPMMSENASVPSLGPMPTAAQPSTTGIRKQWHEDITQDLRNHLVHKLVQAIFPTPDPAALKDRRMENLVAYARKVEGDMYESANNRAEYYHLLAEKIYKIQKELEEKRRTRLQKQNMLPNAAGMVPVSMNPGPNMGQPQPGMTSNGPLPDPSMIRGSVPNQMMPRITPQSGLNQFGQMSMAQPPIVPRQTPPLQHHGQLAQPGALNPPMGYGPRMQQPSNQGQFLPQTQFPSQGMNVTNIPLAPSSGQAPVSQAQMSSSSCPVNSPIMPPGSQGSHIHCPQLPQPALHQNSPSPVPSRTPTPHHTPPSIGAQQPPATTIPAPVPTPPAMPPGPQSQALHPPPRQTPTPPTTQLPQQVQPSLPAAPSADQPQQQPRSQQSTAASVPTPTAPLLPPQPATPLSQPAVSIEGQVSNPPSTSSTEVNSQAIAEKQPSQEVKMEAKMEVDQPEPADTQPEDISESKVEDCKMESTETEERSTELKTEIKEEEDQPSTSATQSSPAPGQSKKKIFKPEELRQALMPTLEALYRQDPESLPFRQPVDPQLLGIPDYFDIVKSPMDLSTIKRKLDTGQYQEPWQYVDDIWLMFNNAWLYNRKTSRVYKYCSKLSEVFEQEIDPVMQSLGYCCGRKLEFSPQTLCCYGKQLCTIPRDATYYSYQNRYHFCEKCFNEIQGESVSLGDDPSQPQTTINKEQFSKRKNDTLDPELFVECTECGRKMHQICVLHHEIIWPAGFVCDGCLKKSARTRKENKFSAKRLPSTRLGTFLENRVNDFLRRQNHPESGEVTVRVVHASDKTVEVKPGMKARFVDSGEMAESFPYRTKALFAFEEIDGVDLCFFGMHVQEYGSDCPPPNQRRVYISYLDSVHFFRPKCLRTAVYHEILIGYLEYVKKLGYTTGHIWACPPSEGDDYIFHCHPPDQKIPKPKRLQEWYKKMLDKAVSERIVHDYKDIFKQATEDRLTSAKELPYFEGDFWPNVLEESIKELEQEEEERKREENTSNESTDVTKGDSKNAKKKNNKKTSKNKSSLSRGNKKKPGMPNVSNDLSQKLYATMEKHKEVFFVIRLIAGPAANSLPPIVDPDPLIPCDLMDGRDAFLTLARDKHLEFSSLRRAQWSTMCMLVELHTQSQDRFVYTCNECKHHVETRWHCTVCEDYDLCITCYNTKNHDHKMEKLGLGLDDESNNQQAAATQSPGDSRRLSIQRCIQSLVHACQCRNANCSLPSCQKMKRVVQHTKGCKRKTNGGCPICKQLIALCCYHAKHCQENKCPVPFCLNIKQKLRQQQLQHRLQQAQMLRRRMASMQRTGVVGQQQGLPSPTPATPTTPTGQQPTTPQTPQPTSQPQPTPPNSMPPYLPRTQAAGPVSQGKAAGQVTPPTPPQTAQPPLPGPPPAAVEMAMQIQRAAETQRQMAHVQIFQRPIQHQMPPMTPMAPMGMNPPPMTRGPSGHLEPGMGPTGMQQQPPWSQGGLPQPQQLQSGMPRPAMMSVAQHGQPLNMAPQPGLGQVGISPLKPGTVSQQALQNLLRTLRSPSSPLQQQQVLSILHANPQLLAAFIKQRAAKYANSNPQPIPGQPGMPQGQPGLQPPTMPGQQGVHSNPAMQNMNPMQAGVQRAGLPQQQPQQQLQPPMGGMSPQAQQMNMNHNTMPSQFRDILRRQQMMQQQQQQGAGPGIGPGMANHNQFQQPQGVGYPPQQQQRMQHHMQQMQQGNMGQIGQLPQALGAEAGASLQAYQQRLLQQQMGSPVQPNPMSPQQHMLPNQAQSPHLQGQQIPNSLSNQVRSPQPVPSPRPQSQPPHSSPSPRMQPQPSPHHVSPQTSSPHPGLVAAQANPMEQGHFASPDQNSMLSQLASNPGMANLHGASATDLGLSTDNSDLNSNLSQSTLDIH

| SMILES | IC50 [1] [nM] | IC50 (NCI-H520) [µM] | inhibition at 10 µM (MDA-MB-231) [%] |
| --- | --- | --- | --- |
| CCOC(=O)CCCCCn1cc(-c2ccc(Cn3ccc(N)nc3=O)cc2)nn1 | 600 | – | – |
| Nc1ccn(Cc2ccc(-c3cn(CCCCc4ccc(C(=O)O)cc4)nn3)cc2)c(=O)n1 | 1140 | – | – |
| Nc1ccn(Cc2cn(CCCCc3ccc(C(=O)O)cc3)nn2)c(=O)n1 | 4570 | – | – |
| CCOC(=O)CCCCCCn1cc(-c2ccc(Cn3cc(F)c(N)nc3=O)cc2)nn1 | 2600 | – | – |
| COC(=O)c1ccc(CCCCn2cc(-c3ccc(Cn4cnc(N)nc4=O)cc3)nn2)cc1 | 360 | – | – |
| CCOC(=O)CCCCCCn1cc(-c2ccc(Cn3cc(C)c(N)nc3=O)cc2)nn1 | 770 | – | – |
| CCOC(=O)CCCCn1cc(Cn2cnc(N)nc2=O)nn1 | 7690 | – | – |
| CCOC(=O)CCCn1cc(-c2ccc(Cn3cnc(N)nc3=O)cc2)nn1 | 4590 | – | – |
| CCOC(=O)CCCCCn1cc(-c2ccc(Cn3cnc(N)nc3=O)cc2)nn1 | 530 | – | – |
| CCOC(=O)CCCCCn1cc(Cn2cnc(N)nc2=O)nn1 | 480 | – | – |
| CCOC(=O)CCCCn1cc(-c2ccc(Cn3ccc(N)nc3=O)cc2)nn1 | 560 | – | – |
| CCOC(=O)CCCCCCn1cc(-c2ccc(Cn3ccc(=O)[nH]c3=O)cc2)nn1 | 2000 | – | – |
| COC(=O)c1ccc(CCCCn2cc(-c3ccc(Cn4cc(F)c(N)nc4=O)cc3)nn2)cc1 | 370 | 23.2 | – |
| CCOC(=O)CCCCCCn1cc(Cn2cnc(N)nc2=O)nn1 | 430 | – | – |
| Nc1ccn(Cc2ccc(-c3cn(CCCCCC(=O)O)nn3)cc2)c(=O)n1 | 4120 | – | – |
| Nc1nc(=O)n(Cc2ccc(-c3cn(CCCCc4ccc(C(=O)O)cc4)nn3)cc2)cc1F | 250 | – | – |
| Nc1ccn(Cc2ccc(-c3cn(CCCCC(=O)O)nn3)cc2)c(=O)n1 | 240 | – | – |

Further lines, with some results ahead:

| IC50 [1] [nM] | IC50 (NCI-H520) [µM] | SMILES | inhibition at 10 µM (MDA-MB-231) [%] |
| --- | --- | --- | --- |
| 180 | 12.2 | COC(=O)c1ccc(CCCCn2cc(-c3ccc(Cn4ccc(N)nc4=O)cc3)nn2)cc1 | – |
| 960 | – | Nc1ccn(Cc2ccc(-c3cn(CCCCCCC(=O)O)nn3)cc2)c(=O)n1 | – |
| 1100 | – | CCOC(=O)CCCCCn1cc(Cn2cc(C)c(N)nc2=O)nn1 | – |
| 650 | – | CCOC(=O)CCCCCCn1cc(-c2ccc(Cn3cnc(N)nc3=O)cc2)nn1 | – |
| 640 | – | CCOC(=O)CCCCCCn1cc(-c2ccc(Cn3ccc(N)nc3=O)cc2)nn1 | – |
| 800 | – | CCOC(=O)CCCCCn1cc(Cn2cc(F)c(N)nc2=O)nn1 | – |
| 560 | – | Nc1ccn(Cc2ccc(-c3cn(CCCC(=O)O)nn3)cc2)c(=O)n1 | – |
| 880 | – | CCOC(=O)CCCCn1cc(-c2ccc(Cn3cnc(N)nc3=O)cc2)nn1 | – |
| 360 | – | CCOC(=O)CCCn1cc(-c2ccc(Cn3ccc(N)nc3=O)cc2)nn1 | – |
| 240 | – | COC(=O)c1ccc(CCCCn2cc(-c3ccc(Cn4cc(C)c(N)nc4=O)cc3)nn2)cc1 | > 50 |
| 9900 | – | CCOC(=O)CCCCCCn1cc(-c2ccc(Cn3cnc4c(N)ncnc43)cc2)nn1 | – |
| 7800 | – | CCOC(=O)CCCCCn1cc(Cn2ccc(N)nc2=O)nn1 | – |
